# Data as given in patent US20130150317A1, “COMPOUNDS FOR THE TREATMENT OF RENAL CELL CARCINOMA” (Myrovlytis Technology Ventures Limited, priority 2010, published 2013).
# Entries after “also recorded” stand apart in the source; their conditions may differ. Counter-ions that a name gives are not always drawn. Like-named read-outs stand apart in the source and are kept apart here.
# What was measured:
# UOK257-FLCN^− cells = assay: SRB growth inhibition assay in UOK257-FLCN^− cells; format: cell-based, human; conditions: for fold difference in the GI50 values between FLCN-null and FLCN-wild type UOK257 cells: GI50 higher in FLCN-wild type cells (FLCN-null more sensitive); for GI50: SRB assay, 72 hours continuous exposure, mean ± SE (n), read-out: GI50 nM in UOK-FLCN^−; for GI50 Ratio of UOK-FLCN^+/UOK-FLCN^−: ratio>1 = more inhibitory to FLCN^− cells
# From the text: (§1) Human renal carcinoma of BHD origin cells UOK-257 (UOK-FLCN^−) and FLCN transfected UOK-257 cells UOK-FLCN^+ (Yang et al Cancer Genet Cytogenet. 2008 Jan. 15; 180(2):100-9) were provided by Dr Marston Linehan and Dr. Laura S Schmidt (Urologic Oncology Branch, Centre for Cancer Research, National Cancer Institute, National Institutes of Health, Bethesda, Md. 20892, USA). UOK-257 is the only RCC cell line that has been derived from a patient with BHD and harbours a germline FLCN frameshift mutation (c.1285dupC) (predicted, in the absence of nonsense mediated mRNA decay, to lead to premature protein truncation (p.His429ProfsX27) (Yang et al., Cancer Genet Cytogenet, 2008 Jan. 15; 180(2):100-9). We are not aware of any sporadic RCC cell lines with homozygous FLCN inactivation. FTC-133 cells were purchased from ECACC (Salisbury, United Kingdom). These cells are a non-RCC cell line derived from human thyroid carcinoma. 786-0 cells were available from the author's lab (Clifford et al., Hum Mol Genet. 2001 May 1; 10(10):1029-38). 786-O is a kidney cancer cell line that harbours an inactivating VHL gene mutation (c.311delG p.G104fs*55). All cell lines were cultured in DMEM with supplement of 10% foetal bovine serum except for FTC-133 cells which were incubated in medium with DMEM and Hens (1:1).
# (§2) The sensitivity of the cell lines to drug-induced cell growth inhibition was determined using the sulphorhodamine B assay (SRB) as described by Lu et al., Clin Cancer Res. 2001:7:2114-23. Briefly, adherent exponentially growing cells were seeded into 96-well plates at 3-5×10^3 cells/100 μl/well. […] The absorbance per well was measured at 570 nm on a Victor X3 Multilabel Plate Reader (PerkinElmor, Beaconsfield, United Kingdom).
# GI50 values, defined as the concentration of compounds required to inhibit growth by 50%, were then calculated. The ratio of GI50 value from UOK257-FLCN^+ and UOK257-FLCN^− were calculated and used as an indicator for the sensitivity to FLCN mutant cells.
# [1] = test system: 786-O cells with mutant VHL; assay: SRB growth inhibition in 786-O cells with mutant VHL; format: cell-based, human; conditions: SRB assay, 72 hours
# From the text: as §1
# as §2, with “μl/well. After 20-24 h at 37° C., drugs were added at the appropriate drug concentrations to the wells (final DMSO conc. 1%) as indicated in the Results section.” for “μl/well.”
# Cells were exposed continuously to various concentrations of drugs for 72 hours. GI50 values were determined as the concentrations at 50% growth inhibition from at least three experiments.
# [2] = test system: FTC-133 cells transfected with empty vector; assay: SRB growth inhibition in FTC-133 cells, empty vector; format: cell-based, human; conditions: SRB assay
# From the text: as §1, §2
# (§3) A FLCN containing construct was introduced into parental FTC-133 cells and stably transfected cells were selected. SRB growth inhibition assay was carried out in cells transfected with empty vector and low FLCN and high FLCN expression.
# as §3
# UOK257-FLCN^+ cells = assay: SRB growth inhibition assay in UOK257-FLCN^+ cells; format: cell-based, human; conditions: 72 hours continuous exposure, mean ± SE (n), read-out: GI50 nM in UOK-FLCN^+
# From the text: as §1
# as §2, with “μl/well. After 20-24 h at 37° C., drugs were added at the appropriate drug concentrations to the wells (final DMSO conc. 1%) as indicated in the Results section.” for “μl/well.”
# UOK-257 is the only RCC cell line that has been derived from a patient with BHD and harbours a germline FLCN frameshift mutation (c.1285dupC) (predicted, in the absence of nonsense mediated mRNA decay, to lead to premature protein truncation (p.His429ProfsX27) (Yang et al Cancer Genet Cytogenet, 2008 Jan. 15; 180(2):100-9). Both UOK257-FLCN^− and UOK257-FLCN^+ cells were examined for their sensitivities to growth inhibition induced by 15 compounds selected from the COMPARE analysis. Various concentrations of compounds were introduced into the cells 24 hrs after seeding, incubation was continued for 72 hours and growth inhibition was assessed using the suiphorhodamine B (SRB) assay. GI50 values, defined as the concentration of compounds required to inhibit growth by 50%, were then calculated. The ratio of GI50 value from UOK257-FLCN^+ and UOK257-FLCN^− were calculated and used as an indicator for the sensitivity to FLCN mutant cells.
# [3] = test system: VHL-deficient cells in ccRCC cell lines; conditions: Sutphin et al., Cancer Res 2007, cited from earlier work
# [4] = test system: caspase3/7 activity in UOK257-FLCN^− and UOK257-FLCN^+ cells; assay: Caspase-Glo 3/7 assay in UOK-257 cells with/without FLCN expression; format: cell-based, human; conditions: 48 hrs, all three concentrations
# Protocol: The ability to induce caspase 3/7 activation after exposure to compounds was measured by Caspase-Glo 3/7 Assay (Promega, Southampton, United Kingdom) according to manufacturer's instruction. The cells were seeded and dosed as described in growth inhibition assay. At the end of incubation, 70 μl of medium was removed and 30 μl of assay reagent was added to the remaining medium. Additional one hour incubation with shaking was carried out at room temperature. The resultant luminescent light was measured in a Victor X3 Multilabel Plate Reader (PerkinElmer, Beaconsfield, United Kingdom). Cell viability after compound exposure was determined by CellTiter-Blue Cell Viability Assay (Promega, Southampton, the United Kingdom) according to manufacturer's instruction. At the end of drug treatment, 20 μl of reagent was added to the medium in 96 wells and the cells were incubated for additional 4 hours. The cell viability was measured by fluorescence with a 570 nm excitation and 590 nm emission set in a Victor X3 Multilabel Plate Reader (PerkinElmer, Beaconsfield, United Kingdom).
# After 48 hrs incubation, with three concentration ranges for each drug, the capase3/7 activity was detected by amount of luminescence for each cell line. The ratio of caspase3/7 activity from UOK257-FLCN^− and UOK257-FLCN^+ were calculated and used as indicators for the ability of the individual compound to induce caspase3/7 activity to FLCN mutant cells.
# These ratios were calculated and used as indicators for the sensitivity to mutant FLCN cells.
Compound,GI50 (UOK257-FLCN^− cells; Homo sapiens) [nM],GI50 Ratio of UOK-FLCN^+/UOK-FLCN^− (UOK257-FLCN^− cells),GI50 (UOK257-FLCN^+ cells; Homo sapiens) [nM],GI50 (UOK257-FLCN^− cells) [nM],GI50 (UOK257-FLCN^+ cells) [nM],further results
"CC[C@]1(O)C[C@H]2CN(CCc3c([nH]c4ccccc34)[C@@](C(=O)OC)(c3cc4c(cc3OC)N(C=O)[C@H]3[C@@](O)(C(=O)OC)[C@H](OC(C)=O)[C@]5(CC)C=CCN6CC[C@]43[C@@H]65)C2)C1 [vincristine sulphate, vincristine sulfate]",30.1 ± 10.3,1.88,56.4 ± 17.5,–,–,fold difference in the GI50 values between FLCN-null and FLCN-wild type UOK257 cells (UOK257-FLCN^− cells): ~2 fold; change in growth inhibition for 786-0 cells with/without VHL expression (in words) [1]: no significant change; differential sensitivity in FTC-133 cells with different levels of FLCN expression (in words) [2]: no selective vincristine sensitivity
"CC(=O)O[C@H]1C(=O)[C@@]2(C)[C@H]([C@H](OC(=O)c3ccccc3)[C@]3(O)C[C@H](OC(=O)[C@H](O)[C@@H](NC(=O)c4ccccc4)c4ccccc4)C(C)=C1C3(C)C)[C@]1(OC(C)=O)CO[C@@H]1C[C@@H]2O [paclitaxel (taxol), paclitaxel]",75.5 ± 9.2,6.81,514 ± 86,–,–,fold difference in the GI50 values between FLCN-null and FLCN-wild type UOK257 cells (UOK257-FLCN^− cells): ~7 fold
COc1cccc2c1C(=O)c1c(O)c3c(c(O)c1C2=O)C[C@@](O)(C(=O)CO)C[C@@H]3O[C@H]1C[C@H](N2CCOCC2C#N)[C@H](O)[C@H](C)O1 (stereo partly shown) [cyanomorpholino-ADR],–,0.16,–,3.79 ± 0.39,0.62 ± 0.16,fold difference in the GI50 values between UOK257-FLCN^+ and UOK257-FLCN^− cells (UOK257-FLCN^− cells; GI50 higher in FLCN^− cells (FLCN^− less sensitive)): 6 fold
CO[C@@H]1C[C@](C)(O)Cc2cc3c(c(O)c21)C(=O)c1c(O)cc2c(c1C3=O)O[C@@H]1O[C@@]2(C)[C@H](O)[C@@H](N(C)C)[C@@H]1O [menogaril],588 ± 57,1.29,757 ± 117,–,–,–
CO[C@@H]1[C@H](O)C[C@@H](O[C@@H]2C[C@H](Oc3cc4cc5c(c(O)c4c(O)c3C)C(=O)[C@@H](O[C@H]3C[C@@H](O[C@H]4C[C@@H](O[C@H]6C[C@](C)(O)[C@@H](OC(C)=O)[C@H](C)O6)[C@H](O)[C@@H](C)O4)[C@H](O)[C@@H](C)O3)[C@H]([C@H](OC)C(=O)[C@@H](O)[C@@H](C)O)C5)O[C@H](C)[C@@H]2OC(C)=O)O[C@@H]1C [chromomycin A3],37.4 ± 6.9,0.88,–,–,–,"differential growth inhibitory activity in FLCN-deficient and FLCN-positive UOK-257 cell lines (in words) (UOK257-FLCN^− cells; listed as ChA3): did not find any differences; also recorded: does not demonstrate selective toxicity; also recorded: does not show differential growth inhibitory activity; GI50 (UOK257-FLCN^+ cells; Homo sapiens, 72 h): 33 ± 5.7 nM; differential toxicity to VHL-deficient relative to VHL-positive RCC cell lines (in words) ([3]; listed as ChA3): discriminate killing of VHL-deficient cells; differential toxicity to VHL-deficient relative to VHL-positive RCC cell lines (in words) ([3]; listed as Chromomycin A3 (ChA3)): differential toxicity"
"COc1cccc2c1C(=O)c1c(O)c3c(c(O)c1C2=O)C[C@@](O)(C(=O)CO)C[C@@H]3O[C@H]1C[C@H](N2CCOCC2)[C@H](O)[C@H](C)O1 [morpholino-ADR, Morpholino-ADR]",–,0.97,–,0.45 ± 0.03,0.44 ± 0.1,–
CS[C@H]1SC[C@H]2C(=O)N(C)[C@@H](C(C)C)C(=O)OC[C@@H](NC(=O)c3cnc4ccccc4n3)C(=O)N[C@@H](C)C(=O)N(C)[C@@H]1C(=O)N(C)[C@@H](C(C)C)C(=O)OC[C@@H](NC(=O)c1cnc3ccccc3n1)C(=O)N[C@@H](C)C(=O)N2C [echinomycin],5.72 ± 0.22,0.71,4.03 ± 0.89,–,–,–
"COc1cc([C@@H]2c3cc4c(cc3[C@@H](O[C@@H]3O[C@@H]5CO[C@@H](c6cccs6)O[C@H]5[C@H](O)[C@H]3O)[C@H]3COC(=O)[C@H]23)OCO4)cc(OC)c1O [VM-26 (teniposide), teniposide]",773 ± 162,1.10,849 ± 358,–,–,–
CC[C@H](C)[C@H]1NC(=O)[C@@H](NC(=O)[C@@H](CC(C)C)N(C)C(=O)[C@@H]2CCCN2C(=O)C(C)O)[C@@H](C)OC(=O)[C@H](Cc2ccc(OC)cc2)N(C)C(=O)[C@@H]2CCCN2C(=O)[C@H](CC(C)C)NC(=O)[C@@H](C)C(=O)[C@H](C(C)C)OC(=O)C[C@@H]1O (stereo partly shown) [didemnin B],–,0.82,–,7.94 ± 1.66,6.53 ± 1.78,–
C(=N\NC1=NCCN1)/c1c2ccccc2c(/C=N/NC2=NCCN2)c2ccccc12 [bisantrene hydrochloride],1750 ± 288,0.77,1340 ± 602,–,–,–
CC(=O)O[C@@H]1[C@@H](O)[C@H](O[C@H]2[C@H](OC(=O)[C@H]3CC[C@@H]4[C@H](C3)O[C@@]3(C[C@H](OC(=O)/C=C/c5ccccc5)[C@H](C)CO3)[C@]43CO3)O[C@H](C)[C@@H](O)[C@@H]2OC(C)=O)O[C@H](C)[C@H]1O [phyllanthoside],199 ± 79,2.15,–,–,–,"fold difference in the GI50 values between FLCN-null and FLCN-wild type UOK257 cells (UOK257-FLCN^− cells): ~2 fold; GI50 (UOK257-FLCN^+ cells; Homo sapiens, 72 h): 427 ± 97 nM"
"COc1cccc2c1C(=O)c1c(O)c3c(c(O)c1C2=O)C[C@@](O)(C(=O)CO)C[C@@H]3O[C@H]1C[C@H](N)[C@H](O)[C@H](C)O1 [doxorubicin (adriamycin), doxorubicin]",423 ± 54,1.37,581 ± 109,–,–,–
bruceantin,–,0.64,–,68.4 ± 14.9,43.6 ± 5.1,ratio of caspase3/7 activity from UOK257-FLCN^− and UOK257-FLCN^+ [4]: < 1
"COc1cccc2c1C(=O)c1c(O)c3c(c(O)c1C2=O)C[C@@](O)(C(C)=O)C[C@@H]3O[C@H]1C[C@H](N(Cc2ccccc2)Cc2ccccc2)[C@@H](O)[C@H](C)O1 [N,N-dibenzyldaunomycin]",–,0.22,–,5740 ± 918,1270 ± 549,–
